{"source": "patent US10238689B2", "about": "“Methods for combating bacterial infections by killing persister cells with mitomycin C and/or cisplatin” (THE PENN STATE RESEARCH FOUNDATION, priority 2015, dated 2019)", "key": {"E. coli K-12 cells": {"test_system": "E. coli K-12 cells", "assay": "Test of DNA crosslinking compounds for antimicrobial activity", "type": "cell-based, Escherichia coli", "protocol": "Stocks of cisplatin (2 mg/mL, Sigma-Aldrich, St. Louis, Mo., USA) were prepared in 0.1M NaClO4 and MMC (0.5 mg/mL, Fisher Scientific, Pittsburgh, Pa., USA) was prepared in water. Stocks of busulfan (2 mg/mL, Cayman Chemical, Ann Arbor, Mich., USA), melphalan (2 mg/mL, Cayman Chemical), dynemicin A (5 mg/mL, AdooQ, Irvine, Calif., USA), and tirapazamine (0.5 mg/mL, Sigma-Aldrich) were prepared in dimethylsulfoxide, the stock of cyclophosphamide (0.5 mg/mL, Cayman Chemical) was prepared in water, and the stock of carmustine (214 mg/mL, Enzo Life Sciences, Farmingdale, N.Y., USA) was prepared in ethanol.\nIn this Example we tested seven other DNA crosslinking compounds: busulfan (100 μg/mL), carmustine (100 μg/mL) cisplatin (100 μg/mL), cyclophosphamide (100 μg/mL), dynemicin A (200 μg/mL), melphalan (100 μg/mL), and tirapazamine (10 μg/mL)."}, "EHEC biofilm cultures": {"test_system": "EHEC biofilm cultures", "conditions": "M9-glucose, 24 h treatment, MMC 10 μg/mL, ciprofloxacin 5 μg/mL"}, "[1]": {"test_system": "S. aureus (methicillin sensitive)", "assay": "Planktonic antibiotic killing assay", "type": "cell-based, Staphylococcus aureus", "conditions": "rich medium (TSB), MMC 10 μg/mL, ciprofloxacin 5 μg/mL, 3 h", "protocol": "(§1) In order to obtain exponential and mid-stationary phase cultures in LB, buffered LB or TSB, overnight cultures (16 h) were diluted 1:1000 in fresh medium and grown to the desired turbidity (i.e., a turbidity below 2 at 600 nm for exponential phase and a turbidity of 3 to 4 at 600 nm for mid-stationary phase). Late-stationary phase cultures in LB or buffered LB were obtained by growing overnight cultures (16 h). In order to obtain exponential and late-stationary phase cultures in M9-glucose, overnight cultures (16 h) were washed diluted 1:1000 in M9-glucose and grown for the desired period of time (i.e., a turbidity of 0.4 at 600 nm for exponential phase and 24 h of growth for late-stationary phase). Anaerobically grown cultures were maintained with ˜20% CO2, ˜79% N2, and ˜1% H2. In order to obtain rifampicin-induced persister cultures in buffered LB, overnight cultures (16 h) were diluted 1:1000 in fresh medium and grown to a turbidity of 0.8 at 600 nm. Cultures were exposed to rifampicin (100 μg/mL) for 30 min, centrifuged, and resuspended in fresh medium to remove the rifampicin."}, "EHEC infection": {"test_system": "EHEC infection", "type": "in vivo, Caenorhabditis elegans", "conditions": "MMC 10 μg/mL, ciprofloxacin 5 μg/mL, ampicillin 100 μg/mL, 6 h exposure; four replicates"}, "E. coli K-12 [2]": {"test_system": "E. coli K-12", "type": "cell-based, Escherichia coli", "conditions": "late stationary phase (16 h of growth), buffered LB; cisplatin 500 μg/mL (5×MIC), ciprofloxacin 5 μg/mL (100×MIC), 8 h", "protocol": "Persister cell killing and eradication assays (planktonic cells). For the time course experiment, late stationary phase cells of E. coli K-12 (wild-type and isogenic mutants) were prepared by growing cells overnight (16 h) in LB medium buffered with 100 mM KPO4 at pH 7.0 (buffered LB). A 1 mL culture was used for a drop (10 μL×3) assay to check cell viability at 0 h (i.e., before antibiotic treatment). […] At 1 h intervals, 1 mL culture was centrifuged at 10,000 rpm for 3 min, the supernatant was discarded, the cells were resuspended in 1 mL of normal saline (0.85% NaCl), and the cell suspension was serially diluted for a drop assay to check cell viability.\nTo test for eradication, the wild-type E. coli K-12 cells were treated with cisplatin for 12 h, a 1 mL sample was centrifuged, the cell pellet was resuspended in 150 μL of normal saline, and the cells were spread on LB agar to check cell viability. Another 1 mL culture was diluted 1:10 with fresh buffered LB and the cells were incubated to allow any remaining cells to replicate. After 12 h, 18 h, and 24 h, 1 mL samples were centrifuged, resuspended in 150 μL of normal saline and spread on LB agar plates to check cell viability. At least two independent cultures were used."}, "E. coli O157:H7 (EHEC)": {"test_system": "E. coli O157:H7 (EHEC)", "assay": "Planktonic antibiotic killing assay", "type": "cell-based, Escherichia coli", "conditions": "late-stationary phase, M9-glucose; MMC 10 μg/mL, ciprofloxacin 5 μg/mL, 3 h", "protocol": "as §1"}, "E. coli K-12 [3]": {"test_system": "E. coli K-12", "assay": "Planktonic antibiotic killing assay", "type": "cell-based, Escherichia coli", "conditions": "for persistence (surviving population): late-stationary phase, MMC 10, ciprofloxacin 5, gentamicin 10 μg/mL, 3 h", "protocol": "as §1"}, "[4]": {"test_system": "S. aureus biofilm cultures", "assay": "Biofilm antibiotic killing assay", "type": "cell-based, Staphylococcus aureus", "conditions": "minimal medium (modified M9-glucose), 24 h treatment, MMC 10 μg/mL, ciprofloxacin 5 μg/mL"}, "E. coli BW25113": {"test_system": "E. coli BW25113", "assay": "Validation of persisters (three rounds of the persister assay)", "type": "cell-based, Escherichia coli", "conditions": "for survival rate: ciprofloxacin 5 μg/mL or ampicillin 100 μg/mL, 3 h", "protocol": "Validation of persisters. To validate that the persister cells are tolerant to antibiotics, not spontaneous resistant mutants, three rounds of the persister assay were performed. Overnight (16 h) cultures of E. coli BW25113 were diluted 1:1000 with fresh buffered LB and grown to a turbidity of ˜0.8 at 600 nm. […] After the first round of antibiotic treatment, a 1 mL sample was centrifuged at 10,000 rpm for 3 min, and the cells were resuspended in 1 mL of normal saline. […] For the second and third rounds, cell suspensions were diluted 1:100 with fresh buffered LB and regrown to a turbidity of ˜0.8 at 600 nm and used for antibiotic treatment followed by the drop assay."}, "E. coli K-12 [5]": {"test_system": "E. coli K-12", "assay": "Minimum inhibitory concentration (MIC) assay", "type": "cell-based, Escherichia coli", "conditions": "Escherichia coli, K12, 16 h, lack of turbidity, read-out: MIC", "protocol": "Minimum inhibitory concentration (MIC) assay. To determine the MICs of cisplatin for E. coli K-12, enterohemorrhagic E. coli (EHEC), S. aureus, and P. aeruginosa (PAO1 and PA14), freshly inoculated cultures (at least two independent cultures) in buffered LB (TSB for S. aureus) were incubated for 16 h with varying concentrations of cisplatin, and growth inhibition was assayed by the lack of turbidity."}, "[6]": {"test_system": "E. coli K-12 persister cells", "assay": "Rifampicin-induced persister cell killing assay", "type": "cell-based, Escherichia coli", "protocol": "Rifampicin-pretreatment was used to convert nearly all the E. coli exponentially-growing cells to persister cells. In brief, overnight cultures (16 h) of E. coli BW25113 were diluted 1:1000 in buffered LB and grown to a turbidity of 0.8 at 600 nm (250 mL flask, 250 rpm). Cultures were treated with rifampicin (100 μg/mL) for 30 min (250 mL flask, 250 rpm), centrifuged, and resuspended in fresh medium to remove the rifampicin. A 1 mL culture was used for a drop assay to check cell viability at 0 h. […] After 3 h, 1 mL of culture was centrifuged at 10,000 rpm for 3 min, the supernatant was discarded, the cells were resuspended in 1 mL of normal saline, and the cell suspension was serially diluted for a drop assay to check cell viability. In addition, 1 mL samples were centrifuged, and the cell pellet resuspended in 150 μL of normal saline and spread on LB agar.\nTo test whether lower concentrations than 500 μg/mL of cisplatin generate resistant mutants, 5 mL cultures of rifampicin-induced persister cells were treated with 200 μg/mL of cisplatin and cells were enumerated by the drop assay using LB agar, LB agar with 200 μg/mL of cisplatin (LBCP200), and LB agar with 500 μg/mL of cisplatin (LBCP500)."}, "[7]": {"test_system": "E. coli K-12 BW25113 VBNC cultures", "assay": "VBNC antibiotic killing assay", "type": "cell-based, Escherichia coli", "conditions": "culturable population of VBNC cultures; MMC 10 μg/mL, ciprofloxacin 5 μg/mL, 16 h", "protocol": "Overnight cultures (16 h) of E. coli K-12 BW25113 grown in LB were diluted 1:1000 in LB and grown to a turbidity of 3.0 at 600 nm. Cells were washed three times with 0.85% NaCl to remove nutrients and incubated in 0.85% NaCl for 32 days until the VBNC population was ˜1,000-fold higher than the culturable population. […] Samples (0.5 mL) were diluted 1:1 with LB to stimulate cellular respiration for 10 min prior to staining with 1 μL of 1 mM RedoxSensor™ Green dye and 1 μL of 20 mM propidium iodide. Samples were visualized in a hemocytometer (Hausser Scientific, Horsham, Pa., USA) using an Olympus BX61 confocal microscope (Olympus, Tokyo, Japan) at 200× magnification in order to determine viability of the VBNC population. Cell counting data was averaged from four images and experiment was performed with at least two independent cultures."}}, "note": "Read-outs that look alike come from different tables or passages of the source."}
{"compound": "Nc1n[n+]([O-])c2ccccc2[n+]1[O-]", "note": "[tirapazamine]", "values": [{"measurement": "antimicrobial activity", "setting": "E. coli K-12 cells; 10 μg/mL", "value": "only cisplatin exhibited antimicrobial activity"}]}
{"compound": "O=P1(N(CCCl)CCCl)NCCCO1", "note": "(centres unmarked) [cyclophosphamide]", "values": [{"measurement": "antimicrobial activity", "setting": "E. coli K-12 cells; 100 μg/mL", "value": "only cisplatin exhibited antimicrobial activity"}]}
{"compound": "N[C@@H](Cc1ccc(N(CCCl)CCCl)cc1)C(=O)O", "note": "[melphalan]", "values": [{"measurement": "antimicrobial activity", "setting": "E. coli K-12 cells; 100 μg/mL", "value": "only cisplatin exhibited antimicrobial activity"}]}
{"compound": "O=C(O)c1cn(C2CC2)c2cc(N3CCNCC3)c(F)cc2c1=O", "note": "[ciprofloxacin]", "values": [{"measurement": "cells surviving", "setting": "EHEC biofilm cultures", "value": "3±1", "unit": "%"}, {"measurement": "survival", "setting": "[1]; exponential phase", "value": "0.55±0.04", "unit": "%"}, {"measurement": "survival", "setting": "[1]; mid-stationary phase", "value": "2.2±0.1", "unit": "%"}, {"measurement": "survival of the EHEC-infected worms", "setting": "EHEC infection", "value": "enhanced the survival"}, {"measurement": "time course dependent killing", "setting": "E. coli K-12 [2]", "value": "had little activity"}, {"measurement": "cells survived", "setting": "E. coli O157:H7 (EHEC)", "value": "1.2±0.1", "unit": "%"}, {"measurement": "survival", "setting": "E. coli K-12 [3]; anaerobic, late-stationary phase cells in rich medium (LB)", "value": "0.44±0.08", "unit": "%"}, {"measurement": "susceptibility of exponential-phase cultures", "setting": "E. coli K-12 [3]; exponential phase, M9-glucose", "value": "similarly susceptible"}, {"measurement": "persistence (surviving population)", "setting": "E. coli K-12 [3]; M9-glucose", "value": "10±1", "unit": "%"}, {"measurement": "survival", "setting": "[4]", "value": "18±2", "unit": "%"}, {"measurement": "survival rate", "setting": "E. coli BW25113; round 1", "value": "0.045±0.008", "unit": "%"}, {"measurement": "survival rate", "setting": "E. coli BW25113; round 2", "value": "0.03±0.01", "unit": "%"}, {"measurement": "survival rate", "setting": "E. coli BW25113; round 3", "value": "0.012±0.002", "unit": "%"}, {"measurement": "MIC", "setting": "E. coli K-12 [5]", "value": 0.05, "unit": "µg/mL"}, {"measurement": "surviving fraction of persister cells", "setting": "[6]", "value": "9±1", "unit": "%"}, {"measurement": "survival of the culturable population", "setting": "[7]", "value": "0.40±0.05", "unit": "%"}]}
{"compound": "CC1(C)S[C@@H]2[C@H](NC(=O)[C@H](N)c3ccccc3)C(=O)N2[C@H]1C(=O)O", "note": "[ampicillin]", "values": [{"measurement": "survival of the EHEC-infected worms", "setting": "EHEC infection", "value": "enhanced the survival"}, {"measurement": "resistant colonies on antibiotic agar", "setting": "E. coli BW25113; LBCipro5 or LBAmp100 agar", "value": "no colonies were detected"}, {"measurement": "survival rate", "setting": "E. coli BW25113; round 1", "value": "0.001±0.001", "unit": "%"}, {"measurement": "survival rate", "setting": "E. coli BW25113; round 2", "value": "0.0001±0.0000", "unit": "%"}, {"measurement": "survival rate", "setting": "E. coli BW25113; round 3", "value": "0.0001±0.0000", "unit": "%"}, {"measurement": "MIC", "setting": "E. coli K-12 [5]", "value": 10, "unit": "µg/mL"}]}
{"compound": "O=NN(CCCl)C(=O)NCCCl", "note": "[carmustine]", "values": [{"measurement": "antimicrobial activity", "setting": "E. coli K-12 cells; 100 μg/mL", "value": "only cisplatin exhibited antimicrobial activity"}]}
{"compound": "COC1=C(C(=O)O)[C@H](C)[C@@]23O[C@]24c2cc(O)c5c(c2N[C@H]3C#C/C=C\\C#C[C@H]14)C(=O)c1c(O)ccc(O)c1C5=O", "note": "[dynemicin A]", "values": [{"measurement": "antimicrobial activity", "setting": "E. coli K-12 cells", "value": "only cisplatin exhibited antimicrobial activity"}]}
{"compound": "gentamicin", "values": [{"measurement": "persistence (surviving population)", "setting": "E. coli K-12 [3]; M9-glucose", "value": "44±5", "unit": "%"}]}
{"compound": "CS(=O)(=O)OCCCCOS(C)(=O)=O", "note": "[busulfan]", "values": [{"measurement": "antimicrobial activity", "setting": "E. coli K-12 cells; 100 μg/mL", "value": "only cisplatin exhibited antimicrobial activity"}]}
